Experimental data as given in patent publication US20220177508A1, “C10-Cyclic Substituted 13-Membered Macrolides and Uses Thereof” (Zikani Therapeutics, Inc., priority 2018, published 2022).
Converted amounts (≈) assume the structure as drawn.

Assays:
Type in all cases: cell-based
P. aeruginosa MP-3 = assay: Broth dilution MIC determination (CLSI), P. aeruginosa MP-3; details: Pseudomonas aeruginosa, MP3; strain MP-3, broth dilution
A. baumannii MP-15 = assay: Broth dilution MIC determination (CLSI), A. baumannii MP-15; details: Acinetobacter baumannii, MP15; strain MP-15, broth dilution; read-out: MIC A. baumanii MP-15
S. aureus MP-12 = assay: Broth dilution MIC determination (CLSI), S. aureus MP-12; details: Staphylococcus aureus, MP12; strain MP-12, broth dilution
E. coli MP-4 = assay: Broth dilution MIC determination (CLSI), E. coli MP-4; details: Escherichia coli, MP4; strain MP-4, broth dilution; read-out: MIC E. coli MP-4
K. pneumoniae MP-546 = assay: Broth dilution MIC determination (CLSI), K. pneumoniae MP-546; details: Klebsiella pneumoniae, MP546; strain MP-546, broth dilution

Row | SMILES | MIC (P. aeruginosa MP-3) | MIC (A. baumannii MP-15) | MIC (S. aureus MP-12) | MIC (E. coli MP-4) | MIC (K. pneumoniae MP-546)
1 | CO[C@]1(C)C[C@@H](C)CN(C(C)=O)[C@H](C2CCN(C(C)C)CC2)COC(=O)C(C)(C)C(=O)[C@H](C)[C@H]1O[C@@H]1O[C@H](C)C[C@H](N(C)C)[C@H]1O [Compound 174, (3R,6R,8R,9R,10R)-4-Acetyl-9-(((2S,3R,4S,6R)-4-(dimethylamino)-3-hydroxy-6-methyltetrahydro-2H-pyran-2-yl)oxy)-3-(1-isopropylpiperidin-4-yl)-8-methoxy-6,8,10,12,12-pentamethyl-1-oxa-4-azacyclotridecane-11,13-dione] | > 32 µg/mL | > 32 µg/mL | > 32 µg/mL | > 32 µg/mL | > 32 µg/mL
2 | CO[C@]1(C)C[C@@H](C)CN(C)[C@@H]([C@H]2CCN(C(=O)CN(C)C)C2)COC(=O)C(C)(C)C(=O)[C@H](C)[C@H]1O[C@@H]1O[C@H](C)C[C@H](N(C)C)[C@H]1O [Compound 67, (3S,6R,8R,9R,10R)-9-(((2S,3R,4S,6R)-4-(dimethylamino)-3-hydroxy-6-methyltetrahydro-2H-pyran-2-yl)oxy)-3-((S)-1-(dimethylglycyl)pyrrolidin-3-yl)-8-methoxy-4,6,8,10,12,12-hexamethyl-1-oxa-4-azacyclotridecane-11,13-dione] | > 32 µg/mL | > 32 µg/mL | > 32 µg/mL | < 4 µg/mL | 4 to 32 µg/mL (≈ 6.11 to 48.9 µM)
3 | CCN1CCC([C@H]2COC(=O)C(C)(C)C(=O)[C@H](C)[C@@H](O[C@@H]3O[C@H](C)C[C@H](N(C)C)[C@H]3O)[C@](C)(OC)C[C@@H](C)CN2C)CC1 [Compound 175, (3S,6R,8R,9R,10R)-9-(((2S,3R,4S,6R)-4-(dimethylamino)-3-hydroxy-6-methyltetrahydro-2H-pyran-2-yl)oxy)-3-(1-ethylpiperidin-4-yl)-8-methoxy-4,6,8,10,12,12-hexamethyl-1-oxa-4-azacyclotridecane-11,13-dione] | > 32 µg/mL | > 32 µg/mL | 4 to 32 µg/mL (≈ 6.54 to 52.3 µM) | < 4 µg/mL | < 4 µg/mL
4 | CO[C@]1(C)C[C@@H](C)CN(C)[C@@H](C2CCNCC2)COC(=O)C(C)(C)C(=O)[C@H](C)[C@H]1O[C@@H]1O[C@H](C)C[C@H](N(C)C)[C@H]1O [Compound 98, (3S,6R,8R,9R,10R)-9-(((2S,3R,4S,6R)-4-(dimethylamino)-3-hydroxy-6-methyltetrahydro-2H-pyran-2-yl)oxy)-8-methoxy-4,6,8,10,12,12-hexamethyl-3-(piperidin-4-yl)-1-oxa-4-azacyclotridecane-11,13-dione] | > 32 µg/mL | > 32 µg/mL | 4 to 32 µg/mL (≈ 6.85 to 54.8 µM) | < 4 µg/mL | 4 to 32 µg/mL (≈ 6.85 to 54.8 µM)
5 | CO[C@]1(C)C[C@@H](C)CN(C)[C@H](C2CN(C(=O)CC(C)(C)CN(C)CC(C)C)C2)COC(=O)C(C)(C)C(=O)[C@H](C)[C@H]1O[C@@H]1O[C@H](C)C[C@H](N(C)C)[C@H]1O [Compound 167, (3R,6R,8R,9R,10R)-9-(((2S,3R,4S,6R)-4-(dimethylamino)-3-hydroxy-6-methyltetrahydro-2H-pyran-2-yl)oxy)-3-(1-(4-(isobutyl(methyl)amino)-3,3-dimethylbutanoyl)azetidin-3-yl)-8-methoxy-4,6,8,10,12,12-hexamethyl-1-oxa-4-azacyclotridecane-11,13-dione] | > 32 µg/mL | > 32 µg/mL | 4 to 32 µg/mL (≈ 5.41 to 43.3 µM) | < 4 µg/mL | 4 to 32 µg/mL (≈ 5.41 to 43.3 µM)
6 | CO[C@]1(C)C[C@@H](C)CN(C)[C@H](C2CCNCC2)[C@H](C)OC(=O)C(C)(C)C(=O)[C@H](C)[C@H]1O[C@@H]1O[C@H](C)C[C@H](N(C)C)[C@H]1O [Compound 47, (2S,3R,6R,8R,9R,10R)-9-(((2S,3R,4S,6R)-4-(dimethylamino)-3-hydroxy-6-methyltetrahydro-2H-pyran-2-yl)oxy)-8-methoxy-2,4,6,8,10,12,12-heptamethyl-3-(piperidin-4-yl)-1-oxa-4-azacyclotridecane-11,13-dione] | > 32 µg/mL | > 32 µg/mL | > 32 µg/mL | 4 to 32 µg/mL (≈ 6.69 to 53.5 µM) | > 32 µg/mL
7 | CO[C@]1(C)C[C@@H](C)CN(C)[C@@H]([C@@H]2CCN(CC(C)C)C2)COC(=O)C(C)(C)C(=O)[C@H](C)[C@H]1O[C@@H]1O[C@H](C)C[C@H](N(C)C)[C@H]1O [Compound 110, (3S,6R,8R,9R,10R)-9-(((2S,3R,4S,6R)-4-(dimethylamino)-3-hydroxy-6-methyltetrahydro-2H-pyran-2-yl)oxy)-3-((R)-1-isobutylpyrrolidin-3-yl)-8-methoxy-4,6,8,10,12,12-hexamethyl-1-oxa-4-azacyclotridecane-11,13-dione] | > 32 µg/mL | > 32 µg/mL | 4 to 32 µg/mL (≈ 6.39 to 51.1 µM) | < 4 µg/mL | < 4 µg/mL
8 | CO[C@]1(C)C[C@@H](C)CN(C)[C@H](c2ccc(Br)cc2)COC(=O)C(C)(C)C(=O)[C@H](C)[C@H]1O[C@@H]1O[C@H](C)C[C@H](N(C)C)[C@H]1O [Compound 33, (3R,6R,8R,9R,10R)-3-(4-bromophenyl)-9-(((2S,3R,4S,6R)-4-(dimethylamino)-3-hydroxy-6-methyltetrahydro-2H-pyran-2-yl)oxy)-8-methoxy-4,6,8,10,12,12-hexamethyl-1-oxa-4-azacyclotridecane-11,13-dione] | > 32 µg/mL | > 32 µg/mL | > 32 µg/mL | 4 to 32 µg/mL (≈ 6.1 to 48.8 µM) | > 32 µg/mL
9 | CO[C@]1(C)C[C@@H](C)CN(C)[C@@H](C2CCN(C)CC2)COC(=O)C(C)(C)C(=O)[C@H](C)[C@H]1O[C@@H]1O[C@H](C)C[C@H](N(C)C)[C@H]1O [Compound 64, (3S,6R,8R,9R,10R)-9-(((2S,3R,4S,6R)-4-(dimethylamino)-3-hydroxy-6-methyltetrahydro-2H-pyran-2-yl)oxy)-8-methoxy-4,6,8,10,12,12-hexamethyl-3-(1-methylpiperidin-4-yl)-1-oxa-4-azacyclotridecane-11,13-dione] | > 32 µg/mL | > 32 µg/mL | 4 to 32 µg/mL (≈ 6.69 to 53.5 µM) | < 4 µg/mL | < 4 µg/mL
10 | CO[C@]1(C)C[C@@H](C)CN(C)[C@H](C2CN(Cc3cn(C)cn3)C2)COC(=O)C(C)(C)C(=O)[C@H](C)[C@H]1O[C@@H]1O[C@H](C)C[C@H](N(C)C)[C@H]1O [Compound 173, (3R,6R,8R,9R,10R)-9-(((2S,3R,4S,6R)-4-(dimethylamino)-3-hydroxy-6-methyltetrahydro-2H-pyran-2-yl)oxy)-8-methoxy-4,6,8,10,12,12-hexamethyl-3-(1-((1-methyl-1H-imidazol-4-yl)methyl)azetidin-3-yl)-1-oxa-4-azacyclotridecane-11,13-dione] | > 32 µg/mL | > 32 µg/mL | > 32 µg/mL | 4 to 32 µg/mL (≈ 6.16 to 49.2 µM) | > 32 µg/mL
11 | CCCN1C2CCC1CC([C@@H]1COC(=O)C(C)(C)C(=O)[C@H](C)[C@@H](O[C@@H]3O[C@H](C)C[C@H](N(C)C)[C@H]3O)[C@](C)(OC)C[C@@H](C)CN1C)C2 (stereo partly drawn) [Compound 79, (3R,6R,8R,9R,10R)-9-(((2S,3R,4S,6R)-4-(dimethylamino)-3-hydroxy-6-methyltetrahydro-2H-pyran-2-yl)oxy)-8-methoxy-4,6,8,10,12,12-hexamethyl-3-(8-propyl-8-azabicyclo[3.2.1]octan-3-yl)-1-oxa-4-azacyclotridecane-11,13-dione] | > 32 µg/mL | > 32 µg/mL | < 4 µg/mL | < 4 µg/mL | 4 to 32 µg/mL (≈ 6.14 to 49.1 µM)
12 | CO[C@]1(C)C[C@@H](C)CN(C)[C@@H]([C@H]2CCCN(C)C2)COC(=O)C(C)(C)C(=O)[C@H](C)[C@H]1O[C@@H]1O[C@H](C)C[C@H](N(C)C)[C@H]1O [Compound 89, (3S,6R,8R,9R,10R)-9-(((2S,3R,4S,6R)-4-(dimethylamino)-3-hydroxy-6-methyltetrahydro-2H-pyran-2-yl)oxy)-8-methoxy-4,6,8,10,12,12-hexamethyl-3-((S)-1-methylpiperidin-3-yl)-1-oxa-4-azacyclotridecane-11,13-dione] | > 32 µg/mL | > 32 µg/mL | > 32 µg/mL | 4 to 32 µg/mL (≈ 6.69 to 53.5 µM) | > 32 µg/mL
13 | CO[C@]1(C)C[C@@H](C)CN(C)[C@H](C2CCN(Cc3nccn3C)CC2)COC(=O)C(C)(C)C(=O)[C@H](C)[C@H]1O[C@@H]1O[C@H](C)C[C@H](N(C)C)[C@H]1O [Compound 179, (3R,6R,8R,9R,10R)-9-(((2S,3R,4S,6R)-4-(dimethylamino)-3-hydroxy-6-methyltetrahydro-2H-pyran-2-yl)oxy)-8-methoxy-4,6,8,10,12,12-hexamethyl-3-(1-((1-methyl-1H-imidazol-2-yl)methyl)piperidin-4-yl)-1-oxa-4-azacyclotridecane-11,13-dione] | > 32 µg/mL | > 32 µg/mL | 4 to 32 µg/mL (≈ 5.9 to 47.2 µM) | < 4 µg/mL | 4 to 32 µg/mL (≈ 5.9 to 47.2 µM)
14 | CO[C@]1(C)C[C@@H](C)CN(C)[C@H](C2CN(CC(C)C)C2)COC(=O)C(C)(C)C(=O)[C@H](C)[C@H]1O[C@@H]1O[C@H](C)C[C@H](N(C)C)[C@H]1O [Compound 112] | > 32 µg/mL | 4 to 32 µg/mL (≈ 6.54 to 52.3 µM) | 4 to 32 µg/mL (≈ 6.54 to 52.3 µM) | < 4 µg/mL | < 4 µg/mL
15 | CO[C@]1(C)C[C@@H](C)CN(C)[C@@H](C2CCCCC2)COC(=O)C(C)(C)C(=O)[C@H](C)[C@H]1O[C@@H]1O[C@H](C)C[C@H](N(C)C)[C@H]1O [Compound 102, (3S,6R,8R,9R,10R)-3-cyclohexyl-9-(((2S,3R,4S,6R)-4-(dimethylamino)-3-hydroxy-6-methyltetrahydro-2H-pyran-2-yl)oxy)-8-methoxy-4,6,8,10,12,12-hexamethyl-1-oxa-4-azacyclotridecane-11,13-dione] | > 32 µg/mL | > 32 µg/mL | > 32 µg/mL | > 32 µg/mL | > 32 µg/mL
